Laboratory results: PubChem BioAssay (NCI)
Values joined by “and” are separate entries in the source; they are usually repeats but may differ in a detail not shown here. Equal values may be shown once.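 Grown in 96-well plates, cells were treated for 48 hours with each compound at five concentrations. Insufficient inhibition: endpoint recorded as highest concentration tested. At the GI50, growth is halved. Definition used: TGI = concentration required for complete inhibition of growth.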

Assays:
Assay in all cases: inhibition of tumour cell growth, NCI panel, 48 h
[1] = test system: COLO 205 colon
[2] = test system: K-562 leukemia
[3] = test system: OVCAR-5 ovarian
[4] = test system: MDA-MB-435
[5] = test system: SK-MEL-2 melanoma
[6] = test system: UACC-257 melanoma
[7] = test system: NCI-H522 lung
[8] = test system: SR leukemia
[9] = test system: NCI/ADR-RES ovarian
[10] = test system: HCC-2998 colon
[11] = test system: EKVX NSCLC
[12] = test system: SF-268 CNS
[13] = test system: PC-3 prostate
[14] = test system: NCI-H23 lung
[15] = test system: KM12 colon
[16] = test system: OVCAR-4 ovarian
[17] = test system: MOLT-4 leukemia
[18] = test system: SK-MEL-28 melanoma
[19] = test system: SN12C renal
[20] = test system: TK-10 renal
[21] = test system: HOP-62 NSCLC
[22] = test system: RXF 393 renal
[23] = test system: U251 CNS
[24] = test system: MCF7 breast
[25] = test system: T-47D breast
[26] = test system: NCI-H460 lung
[27] = test system: OVCAR-8 ovarian
[28] = test system: A498 renal
[29] = test system: ACHN renal
[30] = test system: SW-620 colon
[31] = test system: SK-OV-3 ovarian
[32] = test system: HCT-15 colon
[33] = test system: HT29 colon
[34] = test system: CCRF-CEM leukemia
[35] = test system: SNB-75 CNS
[36] = test system: SF-539 CNS
[37] = test system: A549 NSCLC
[38] = test system: LOX IMVI melanoma
[39] = test system: NCI-H226 lung
[40] = test system: IGROV1 ovarian
[41] = test system: MALME-3M melanoma
[42] = test system: M14 melanoma
[43] = test system: 786-0 renal
[44] = test system: MDA-MB-231 breast
[45] = test system: SNB-19 CNS
[46] = test system: UO-31 renal
[47] = test system: SF-295 CNS
[48] = test system: DU-145 prostate
[49] = test system: SK-MEL-5 melanoma
[50] = test system: BT-549 breast
[51] = test system: OVCAR-3 ovarian
[52] = test system: HL-60(TB) leukemia
[53] = test system: UACC-62 melanoma
[54] = test system: HCT-116 colon
[55] = test system: RPMI-8226 leukemia

## O=C1NC2C(CC(O)C(O)C2O)c2cc3c(c(O)c21)OCO3 (configuration not stated)
[1]
  GI50: 0.0255 µM and < 0.01 µM
  TGI: 0.127 µM and 0.0156 µM

## CCCCCCCCNc1cc2c3c(c1)CCCN3CCC2
[2]
  GI50: 0.433 µM
  TGI: > 100 µM
[3]
  GI50: 3.88 µM
  TGI: 17.5 µM
[4]
  GI50: 0.951 µM
  TGI: 11.7 µM
[5]
  GI50: 3.06 µM
  TGI: 12.7 µM
[1]
  GI50: 1.87 µM
  TGI: 4.76 µM
[6]
  GI50: 1.03 µM
  TGI: 6.71 µM
[7]
  GI50: 0.594 µM
  TGI: 6.47 µM
[8]
  GI50: 0.551 µM
  TGI: > 100 µM
[9]
  GI50: 19.7 µM
  TGI: > 100 µM
[10]
  GI50: 5.41 µM
  TGI: 26.8 µM
[11]
  GI50: 0.559 µM
  TGI: 15.3 µM
[12]
  GI50: 2.04 µM
  TGI: 12.8 µM
[13]
  GI50: 0.926 µM
  TGI: 12.8 µM
[14]
  GI50: 1.79 µM
  TGI: 18.1 µM
[15]
  GI50: 1.63 µM
  TGI: 10.6 µM
[16]
  GI50: 1.94 µM
  TGI: 12 µM
[17]
  GI50: 1.09 µM
  TGI: > 100 µM
[18]
  GI50: 3.87 µM
  TGI: 17.8 µM
[19]
  GI50: 2.56 µM
  TGI: 14.7 µM
[20]
  GI50: 5.69 µM
  TGI: 22 µM
[21]
  GI50: 4.04 µM
  TGI: 18.3 µM
[22]
  GI50: 4.07 µM
  TGI: 17.9 µM
[23]
  GI50: 0.39 µM
  TGI: 15.1 µM
[24]
  GI50: 2.98 µM
  TGI: 13 µM
[25]
  GI50: 1.34 µM
  TGI: 21 µM
[26]
  GI50: 2.66 µM
  TGI: 9.18 µM
[27]
  GI50: 1.87 µM
  TGI: 20.3 µM
[28]
  GI50: 4.2 µM
  TGI: 18.7 µM
[29]
  GI50: 3.22 µM
  TGI: 17.7 µM
[30]
  GI50: 2.14 µM
  TGI: 13.3 µM
[31]
  GI50: 2.36 µM
  TGI: 7.96 µM
[32]
  GI50: 10.5 µM
  TGI: 38.5 µM
[33]
  GI50: 0.774 µM
  TGI: 11.1 µM
[34]
  GI50: 1.63 µM
  TGI: > 100 µM
[35]
  GI50: 1.47 µM
  TGI: 10.8 µM
[36]
  GI50: 2.81 µM
  TGI: 17 µM
[37]
  GI50: 4.26 µM
  TGI: 19.3 µM
[38]
  GI50: 1.57 µM
  TGI: 28.5 µM
[39]
  GI50: 2.46 µM
  TGI: 16.4 µM
[40]
  GI50: 1.77 µM
  TGI: 8.3 µM
[41]
  GI50: 2.05 µM
  TGI: 8.53 µM
[42]
  GI50: 2.5 µM
  TGI: 13.6 µM
[43]
  GI50: 3.31 µM
  TGI: 13.7 µM
[44]
  GI50: 2.56 µM
  TGI: 11.7 µM
[45]
  GI50: 3.29 µM
  TGI: 19.4 µM
[46]
  GI50: 3.17 µM
  TGI: 17.7 µM
[47]
  GI50: 2.31 µM
  TGI: 10.8 µM
[48]
  GI50: 2.61 µM
  TGI: 12.8 µM
[49]
  GI50: 1.49 µM
  TGI: 3.14 µM
[50]
  GI50: 2.28 µM
  TGI: 12.3 µM
[51]
  GI50: 1.55 µM
  TGI: 5.81 µM
[52]
  GI50: 0.33 µM
  TGI: 1.85 µM
[53]
  GI50: 2.16 µM
  TGI: 16.4 µM
[54]
  GI50: 1.11 µM
  TGI: 7.92 µM
[55]
  GI50: 5.55 µM
  TGI: > 100 µM
